Source: PubChem BioAssay AID651981 (The Scripps Research Institute Molecular Screening Center, 2013)
Active and inactive are the calls of the source. How the calls were made is not given here.

How the values were obtained:
Experiment in all cases: PubChem AID 651981
[1] = test system: TPP2; settings: BW5147 mouse T-cell proteome, ABPP-SILAC LC-MS ratio, at 1 µM, active compounds read low
[2] = test system: DPP4; settings: BW5147 mouse T-cell proteome, ABPP-SILAC LC-MS ratio, at 1 µM, active compounds read low
[3] = test system: PRCP; settings: BW5147 mouse T-cell proteome, ABPP-SILAC LC-MS ratio, at 1 µM, active compounds read low
[4] = test system: PPME1; settings: BW5147 mouse T-cell proteome, ABPP-SILAC LC-MS ratio, at 1 µM, active compounds read low
[5] = test system: DPP9; settings: BW5147 mouse T-cell proteome, ABPP-SILAC LC-MS ratio, at 1 µM, active compounds read low
[6] = test system: PAFAH1B2; settings: BW5147 mouse T-cell proteome, ABPP-SILAC LC-MS ratio, at 1 µM, active compounds read low
[7] = test system: FASN; settings: BW5147 mouse T-cell proteome, ABPP-SILAC LC-MS ratio, at 1 µM, active compounds read low
[8] = test system: PNPLA7; settings: BW5147 mouse T-cell proteome, ABPP-SILAC LC-MS ratio, at 1 µM, active compounds read low
[9] = test system: PNPLA6; settings: BW5147 mouse T-cell proteome, ABPP-SILAC LC-MS ratio, at 1 µM, active compounds read low
[10] = test system: DPP8; settings: BW5147 mouse T-cell proteome, ABPP-SILAC LC-MS ratio, at 1 µM, active compounds read low
[11] = test system: LYPLA2; settings: BW5147 mouse T-cell proteome, ABPP-SILAC LC-MS ratio, at 1 µM, active compounds read low
[12] = test system: PAFAH1B3; settings: BW5147 mouse T-cell proteome, ABPP-SILAC LC-MS ratio, at 1 µM, active compounds read low
[13] = test system: ACOT2; settings: BW5147 mouse T-cell proteome, ABPP-SILAC LC-MS ratio, at 1 µM, active compounds read low
[14] = test system: ACOT1; settings: BW5147 mouse T-cell proteome, ABPP-SILAC LC-MS ratio, at 1 µM, active compounds read low
[15] = molecular target: Platelet-activating factor acetylhydrolase 2, cytoplasmic (Mus musculus) (UniProt Q8VDG7); settings: BW5147 mouse T-cell proteome, ABPP-SILAC LC-MS ratio; PAFAH2; at 1 µM; active compounds read low
[16] = test system: ESD; settings: BW5147 mouse T-cell proteome, ABPP-SILAC LC-MS ratio, at 1 µM, active compounds read low
[17] = molecular target: Prolyl endopeptidase (Mus musculus) (UniProt Q9QUR6); settings: BW5147 mouse T-cell proteome, ABPP-SILAC LC-MS ratio; PREP; at 1 µM; active compounds read low
[18] = molecular target: Monoacylglycerol lipase ABHD6 (Mus musculus) (UniProt Q8R2Y0); settings: BW5147 mouse T-cell proteome, ABPP-SILAC LC-MS ratio, at 1 µM, active compounds read low
[19] = test system: AADACL1; settings: BW5147 mouse T-cell proteome, ABPP-SILAC LC-MS ratio, at 1 µM, active compounds read low
[20] = test system: ABHD12; settings: BW5147 mouse T-cell proteome, ABPP-SILAC LC-MS ratio, at 1 µM, active compounds read low
[21] = molecular target: Acyl-protein thioesterase 1 (Mus musculus) (UniProt P97823); settings: BW5147 mouse T-cell proteome, ABPP-SILAC LC-MS ratio; LYPLA1; at 1 µM; active compounds read low
[22] = test system: LIPE; settings: BW5147 mouse T-cell proteome, ABPP-SILAC LC-MS ratio, at 1 µM, active compounds read low
[23] = test system: APEH; settings: BW5147 mouse T-cell proteome, ABPP-SILAC LC-MS ratio, at 1 µM, active compounds read low
[24] = test system: SEC23IP; settings: BW5147 mouse T-cell proteome, ABPP-SILAC LC-MS ratio, at 1 µM, active compounds read low
[25] = test system: FAAH; settings: BW5147 mouse T-cell proteome, ABPP-SILAC LC-MS ratio, at 1 µM, active compounds read low

Chain of Monoacylglycerol lipase ABHD6 (Mus musculus) (Q8R2Y0 whole entry, looked up): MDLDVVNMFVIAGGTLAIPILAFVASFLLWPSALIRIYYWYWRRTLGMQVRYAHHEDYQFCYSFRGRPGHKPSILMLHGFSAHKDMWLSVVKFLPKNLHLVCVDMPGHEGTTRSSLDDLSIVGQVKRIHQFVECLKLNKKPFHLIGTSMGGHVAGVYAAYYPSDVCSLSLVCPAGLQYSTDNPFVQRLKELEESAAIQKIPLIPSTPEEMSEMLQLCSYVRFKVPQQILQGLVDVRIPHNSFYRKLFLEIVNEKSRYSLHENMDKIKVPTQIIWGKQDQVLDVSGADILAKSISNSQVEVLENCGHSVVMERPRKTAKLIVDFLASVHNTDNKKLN
Chain of Acyl-protein thioesterase 1 (Mus musculus) (P97823 whole entry, looked up): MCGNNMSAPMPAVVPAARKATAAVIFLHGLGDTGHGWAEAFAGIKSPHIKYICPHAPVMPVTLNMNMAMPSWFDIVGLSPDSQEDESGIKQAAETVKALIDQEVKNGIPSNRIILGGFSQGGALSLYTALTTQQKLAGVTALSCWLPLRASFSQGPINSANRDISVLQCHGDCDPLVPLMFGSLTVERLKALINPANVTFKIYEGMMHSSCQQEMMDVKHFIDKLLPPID
Chain of Prolyl endopeptidase (Mus musculus) (Q9QUR6 whole entry, looked up): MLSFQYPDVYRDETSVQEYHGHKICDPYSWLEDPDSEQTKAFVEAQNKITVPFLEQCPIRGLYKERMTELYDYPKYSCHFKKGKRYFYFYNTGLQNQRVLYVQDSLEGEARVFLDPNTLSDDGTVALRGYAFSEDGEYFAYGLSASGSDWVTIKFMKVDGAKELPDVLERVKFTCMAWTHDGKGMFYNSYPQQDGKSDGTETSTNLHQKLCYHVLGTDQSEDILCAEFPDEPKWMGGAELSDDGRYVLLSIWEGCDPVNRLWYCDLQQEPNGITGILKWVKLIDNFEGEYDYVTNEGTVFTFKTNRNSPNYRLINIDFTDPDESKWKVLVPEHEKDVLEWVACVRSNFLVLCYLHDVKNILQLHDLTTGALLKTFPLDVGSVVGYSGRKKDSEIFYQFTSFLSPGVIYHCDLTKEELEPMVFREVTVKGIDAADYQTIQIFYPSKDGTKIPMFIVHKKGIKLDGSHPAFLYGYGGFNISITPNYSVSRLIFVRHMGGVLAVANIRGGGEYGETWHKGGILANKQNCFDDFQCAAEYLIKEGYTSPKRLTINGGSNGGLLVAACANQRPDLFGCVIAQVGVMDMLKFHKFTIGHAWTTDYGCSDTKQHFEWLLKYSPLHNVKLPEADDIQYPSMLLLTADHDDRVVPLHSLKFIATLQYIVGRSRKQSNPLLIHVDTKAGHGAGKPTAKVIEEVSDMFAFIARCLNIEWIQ
Chain of Platelet-activating factor acetylhydrolase 2, cytoplasmic (Mus musculus) (Q8VDG7 whole entry, looked up): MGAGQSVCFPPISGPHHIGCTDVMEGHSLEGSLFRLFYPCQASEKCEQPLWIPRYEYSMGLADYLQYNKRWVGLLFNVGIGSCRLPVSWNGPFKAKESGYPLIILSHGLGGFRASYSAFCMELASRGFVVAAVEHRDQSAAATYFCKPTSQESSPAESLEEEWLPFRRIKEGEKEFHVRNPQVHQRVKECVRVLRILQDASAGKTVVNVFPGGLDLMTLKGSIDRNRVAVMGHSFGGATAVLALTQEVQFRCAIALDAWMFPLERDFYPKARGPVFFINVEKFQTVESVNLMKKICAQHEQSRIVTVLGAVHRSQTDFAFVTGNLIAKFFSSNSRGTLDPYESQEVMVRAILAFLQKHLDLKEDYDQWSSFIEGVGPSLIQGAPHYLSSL

COc1ccc(N2CCN(C(=O)c3cc4c(s3)-c3ccccc3S(=O)(=O)C4)CC2)cc1
remaining activity ratio (inhibitor/DMSO) [1]: 1.2 (inactive) | remaining activity ratio (inhibitor/DMSO) [2]: 1.17 (inactive) | remaining activity ratio (inhibitor/DMSO) [3]: 1.56 (inactive) | remaining activity ratio (inhibitor/DMSO) [4]: 1.34 (inactive) | remaining activity ratio (inhibitor/DMSO) [5]: 1.12 (inactive) | remaining activity ratio (inhibitor/DMSO) [6]: 1.23 (inactive) | remaining activity ratio (inhibitor/DMSO) [7]: 1.14 (inactive) | remaining activity ratio (inhibitor/DMSO) [8]: 1.12 (inactive) | remaining activity ratio (inhibitor/DMSO) [9]: 1.03 (inactive) | remaining activity ratio (inhibitor/DMSO) [10]: 1.1 (inactive) | remaining activity ratio (inhibitor/DMSO) [11]: 0.01 | remaining activity ratio (inhibitor/DMSO) [12]: 1.09 (inactive) | remaining activity ratio (inhibitor/DMSO) [13]: 1.25 (inactive) | remaining activity ratio (inhibitor/DMSO) [14]: 1.23 (inactive) | remaining activity ratio (inhibitor/DMSO) [15]: 1.14 (inactive) | remaining activity ratio (inhibitor/DMSO) [16]: 1.24 (inactive) | remaining activity ratio (inhibitor/DMSO) [17]: 1.12 (inactive) | remaining activity ratio (inhibitor/DMSO) [18]: 1.06 (inactive) | remaining activity ratio (inhibitor/DMSO) [19]: 1.46 (inactive) | remaining activity ratio (inhibitor/DMSO) [20]: 1.21 (inactive) | remaining activity ratio (inhibitor/DMSO) [21]: 1.08 (inactive) | remaining activity ratio (inhibitor/DMSO) [22]: 0.88 (inactive) | remaining activity ratio (inhibitor/DMSO) [23]: 1.11 (inactive) | remaining activity ratio (inhibitor/DMSO) [24]: 1.53 (inactive) | remaining activity ratio (inhibitor/DMSO) [25]: 1.25 (inactive)
